Source: patent publication US20260013505A1, “Herbicidal Compositions Comprising Diclosulam” (BASF SE, priority 2024, published 2026)

Key:
Assay type in all cases: in vivo
Amaranthus viridis = experiment: Example 2 post-emergence field trial, AMAVI; details: 21 DAT, growth stage 16-18
Description: (§1) In the examples below, using the method of S. R. Colby (1967) “Calculating synergistic and antagonistic responses of herbicide combinations”, Weeds 15, p. 22ff., the value E, which is expected if the activity of the individual active compounds is only additive, was calculated:
(§2) [formula] • where • X=percent activity using active herbicide A at an application rate a; • Y=percent activity using active herbicide B (e.g. diclosulam) at an application rate b; • E=expected activity (in %) by A+B at application rates a+b.
(§3) If the value found experimentally is higher than the value E calculated according to Colby, a synergistic effect is present.
(§4) On field test sites, natural weed infestation or seeded weeds were treated post-emergence of the weeds.
(§5) In the field trials, the weeds were treated as indicated below.
(§6) In the following experiments, the herbicidal activity for the individual herbicidal compositions (solo and mixture applications) was assessed at the indicated days after treatment (DAT). The assessments for the damage on undesired weeds caused by the composition was carried out using a scale from 0 to 100%, compared to the untreated control plants. Here, 0 means no damage and 100 means complete destruction of the plants. […]

Ipomoea triloba = experiment: Example 1 post-emergence field trial, IPOTR; details: 14 DAT, growth stage 35
Description: as §1, §2, §3, §4, §5, §6

Brachiaria plantaginea = experiment: Example 1 post-emergence field trial, BRAPL; details: B solo 30 g ai/ha, 14 DAT, growth stage 21-25
Description: as §1, §2, §3, §4, §5, §6

Digitaria horizontalis = experiment: Example 1 post-emergence field trial, DIGHO; details: B solo 30 g ai/ha, 14 DAT, growth stage 18-31
Description: as §1, §2, §3, §4, §5, §6

Euphorbia heterophylla = experiment: Example 1 post-emergence field trial, EPHHL; details: B solo 30 g ai/ha, 14 DAT, growth stage 35
Description: as §1, §2, §3, §4, §5, §6

Eleusine indica [1] = experiment: Example 1 post-emergence field trial, ELEIN; details: B solo 30 g ai/ha, 14 DAT, growth stage 18-31
Description: as §1, §2, §3, §4, §5, §6

Cenchrus echinatus = experiment: Example 1 post-emergence field trial, CCHEC; details: B solo 30 g ai/ha, 14 DAT, growth stage 18-31
Description: as §1, §2, §3, §4, §5, §6

Portulaca oleracea = experiment: Example 2 post-emergence field trial, POROL; details: B solo 30 g ai/ha, 21 DAT, growth stage 14-16
Description: as §1, §2, §3, §4, §5, §6

Sorghum vulgare = experiment: Example 2 post-emergence field trial, SORVU; details: B solo 30 g ai/ha, 14 DAT, growth stage 14-15
Description: as §1, §2, §3, §4, §5, §6

Eleusine indica [2] = experiment: Example 2 post-emergence field trial, ELEIN; details: B solo 30 g ai/ha, 21 DAT, growth stage 21-25
Description: as §1, §2, §3, §4, §5, §6

Amaranthus hybridus = experiment: Example 1 post-emergence field trial, AMACH; details: B solo 30 g ai/ha, 14 DAT, growth stage 35
Description: as §1, §2, §3, §4, §5, §6

SMILES | % herbicidal activity (Amaranthus viridis; A-1 solo 25 g ai/ha) [%] | % herbicidal activity (Ipomoea triloba; A-1 solo 25 g ai/ha) [%] | % herbicidal activity (Brachiaria plantaginea) [%] | % herbicidal activity (Digitaria horizontalis) [%] | % herbicidal activity (Euphorbia heterophylla) [%] | % herbicidal activity (Amaranthus viridis; B solo 30 g ai/ha) [%] | % herbicidal activity (Eleusine indica [1]) [%] | % herbicidal activity (Cenchrus echinatus) [%] | % herbicidal activity (Portulaca oleracea) [%] | % herbicidal activity (Ipomoea triloba; B solo 30 g ai/ha) [%] | % herbicidal activity (Sorghum vulgare) [%] | % herbicidal activity (Eleusine indica [2]) [%] | % herbicidal activity (Amaranthus hybridus) [%]
CCOC(=O)COc1ccccc1Oc1nc(-n2c(=O)cc(C(F)(F)F)n(C)c2=O)c(F)cc1Cl [A-1, ethyl 2-[2-[[3-chloro-5-fluoro-6-[3-methyl-2,6-dioxo-4-(trifluoromethyl)pyrimidin-1-yl]-2-pyridyl]oxy]phenoxy]acetate] | 69 | 61 | – | – | – | – | – | – | – | – | – | – | –
CCOc1nc(F)cc2nc(S(=O)(=O)Nc3c(Cl)cccc3Cl)nn12 [B, diclosulam] | – | – | 3 | 0 | 16 | 65 | 0 | 20 | 58 | 17 | 32 | 0 | 22
